Experimental findings from paper PMC3961306, “Comparison of the Cancer Gene Targeting and Biochemical Selectivities of All Targeted Kinase Inhibitors Approved for Clinical Use” (PLoS ONE, 2014) are described below.

Holding throughout (assay): Kinase profiling in a biochemical assay panel (mobility shift assays and ELISA), %-inhibition at 1 μM; selectivity entropy
The target in test [1] is panel of more than 300 wild-type and mutant kinases (313 kinase panel) (Homo sapiens, UniProt Q02750). The following applies: kinase MAP2K1; compound at 1 μM.
In test [2] the target is T1, panel of more than 300 wild-type and mutant kinases (313 kinase panel) (Homo sapiens, UniProt O14733).
T1 sequence (O14733 1-419): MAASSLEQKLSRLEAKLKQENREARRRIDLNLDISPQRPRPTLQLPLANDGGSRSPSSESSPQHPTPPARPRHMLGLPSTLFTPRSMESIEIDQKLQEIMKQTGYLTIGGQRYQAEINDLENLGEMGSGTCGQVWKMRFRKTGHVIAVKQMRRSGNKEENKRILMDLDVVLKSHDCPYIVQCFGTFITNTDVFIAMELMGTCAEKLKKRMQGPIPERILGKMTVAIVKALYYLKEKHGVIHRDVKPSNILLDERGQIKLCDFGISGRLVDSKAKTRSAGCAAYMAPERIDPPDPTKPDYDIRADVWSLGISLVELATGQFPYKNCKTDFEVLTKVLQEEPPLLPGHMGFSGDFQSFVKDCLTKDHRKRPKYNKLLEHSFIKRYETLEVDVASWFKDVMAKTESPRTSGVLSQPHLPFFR

The target of test [3] is panel of more than 300 wild-type and mutant kinases (313 kinase panel) (Homo sapiens, UniProt P49840). To be noted: kinase GSK3α; compound at 1 μM.
Test [4] addresses T2, panel of more than 300 wild-type and mutant kinases (313 kinase panel) (Homo sapiens, UniProt P54753).
T2 sequence (P54753 34-998): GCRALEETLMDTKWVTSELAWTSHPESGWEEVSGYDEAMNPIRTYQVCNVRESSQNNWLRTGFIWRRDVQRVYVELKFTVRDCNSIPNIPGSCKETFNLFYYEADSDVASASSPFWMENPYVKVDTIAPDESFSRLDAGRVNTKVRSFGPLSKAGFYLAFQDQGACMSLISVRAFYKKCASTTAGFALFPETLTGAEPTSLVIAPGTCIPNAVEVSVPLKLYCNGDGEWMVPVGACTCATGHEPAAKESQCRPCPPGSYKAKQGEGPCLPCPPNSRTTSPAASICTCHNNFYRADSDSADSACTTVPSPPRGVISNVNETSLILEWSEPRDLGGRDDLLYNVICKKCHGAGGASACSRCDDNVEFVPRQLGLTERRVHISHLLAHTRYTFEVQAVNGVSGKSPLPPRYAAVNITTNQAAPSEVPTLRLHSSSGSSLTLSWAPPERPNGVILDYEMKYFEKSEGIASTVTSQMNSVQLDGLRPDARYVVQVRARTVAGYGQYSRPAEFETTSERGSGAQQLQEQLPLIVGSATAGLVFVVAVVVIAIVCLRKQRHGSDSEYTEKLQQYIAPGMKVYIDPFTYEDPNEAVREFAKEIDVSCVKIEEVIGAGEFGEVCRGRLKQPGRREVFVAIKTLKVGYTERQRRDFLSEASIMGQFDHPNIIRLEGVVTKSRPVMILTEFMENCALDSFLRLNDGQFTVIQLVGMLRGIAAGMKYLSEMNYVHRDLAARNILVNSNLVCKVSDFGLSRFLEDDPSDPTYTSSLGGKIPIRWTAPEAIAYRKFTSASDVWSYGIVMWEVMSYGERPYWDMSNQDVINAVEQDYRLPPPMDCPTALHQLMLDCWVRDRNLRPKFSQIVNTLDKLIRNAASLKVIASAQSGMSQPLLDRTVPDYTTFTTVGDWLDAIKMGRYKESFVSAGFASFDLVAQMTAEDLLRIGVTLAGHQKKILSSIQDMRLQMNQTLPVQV

Test [5] deals with panel of more than 300 wild-type and mutant kinases (313 kinase panel) (Homo sapiens, UniProt Q9Y6M4). The following applies: kinase CK1γ3; 1 μM compound.
Sequence of panel of more than 300 wild-type and mutant kinases (313 kinase panel) (Homo sapiens, UniProt Q9Y6M4) (Q9Y6M4 whole entry, change not shown): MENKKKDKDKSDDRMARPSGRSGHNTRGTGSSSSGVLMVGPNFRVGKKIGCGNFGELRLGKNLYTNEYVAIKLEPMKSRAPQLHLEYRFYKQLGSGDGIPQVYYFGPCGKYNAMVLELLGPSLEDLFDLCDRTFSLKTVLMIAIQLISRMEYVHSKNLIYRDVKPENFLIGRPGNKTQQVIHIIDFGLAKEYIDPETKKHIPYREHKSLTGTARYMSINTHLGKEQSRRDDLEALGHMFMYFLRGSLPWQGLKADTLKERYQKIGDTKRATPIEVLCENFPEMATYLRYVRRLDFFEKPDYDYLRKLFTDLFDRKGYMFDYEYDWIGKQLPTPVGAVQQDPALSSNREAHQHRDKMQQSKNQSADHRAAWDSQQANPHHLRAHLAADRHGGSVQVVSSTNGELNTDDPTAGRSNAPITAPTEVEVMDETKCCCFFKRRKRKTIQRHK
The target in test [6] is T3, panel of more than 300 wild-type and mutant kinases (313 kinase panel) (Homo sapiens, UniProt Q14164).
T3 sequence (Q14164 1-716): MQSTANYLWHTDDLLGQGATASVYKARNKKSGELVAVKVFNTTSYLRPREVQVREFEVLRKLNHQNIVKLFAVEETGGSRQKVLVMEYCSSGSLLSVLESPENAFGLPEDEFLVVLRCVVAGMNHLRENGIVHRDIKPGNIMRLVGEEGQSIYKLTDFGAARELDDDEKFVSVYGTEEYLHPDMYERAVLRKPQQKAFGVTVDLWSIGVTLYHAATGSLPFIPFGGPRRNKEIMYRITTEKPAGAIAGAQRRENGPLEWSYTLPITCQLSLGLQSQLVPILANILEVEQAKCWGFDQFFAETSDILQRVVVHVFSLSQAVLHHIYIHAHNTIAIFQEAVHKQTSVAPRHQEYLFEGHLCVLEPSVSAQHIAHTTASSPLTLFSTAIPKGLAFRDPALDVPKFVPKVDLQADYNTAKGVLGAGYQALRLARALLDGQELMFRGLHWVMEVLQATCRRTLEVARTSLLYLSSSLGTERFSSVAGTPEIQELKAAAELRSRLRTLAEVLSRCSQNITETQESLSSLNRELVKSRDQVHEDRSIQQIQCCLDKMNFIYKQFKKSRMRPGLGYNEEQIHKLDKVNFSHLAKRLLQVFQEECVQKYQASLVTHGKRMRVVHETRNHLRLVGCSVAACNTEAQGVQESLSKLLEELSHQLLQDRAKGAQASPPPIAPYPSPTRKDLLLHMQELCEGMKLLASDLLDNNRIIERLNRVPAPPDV
To be noted: kinase IKKε; compound at 1 μM.

Test [7] concerns the target panel of more than 300 wild-type and mutant kinases (313 kinase panel) (Homo sapiens, UniProt P53355). To be noted: kinase DAPK1; compound at 1 μM.
Test [8] deals with panel of more than 300 wild-type and mutant kinases (313 kinase panel) (Homo sapiens, UniProt P14616). The following applies: kinase IRR; compound at 1 μM.
Sequence of panel of more than 300 wild-type and mutant kinases (313 kinase panel) (Homo sapiens, UniProt P14616) (P14616 27-1297, change not shown): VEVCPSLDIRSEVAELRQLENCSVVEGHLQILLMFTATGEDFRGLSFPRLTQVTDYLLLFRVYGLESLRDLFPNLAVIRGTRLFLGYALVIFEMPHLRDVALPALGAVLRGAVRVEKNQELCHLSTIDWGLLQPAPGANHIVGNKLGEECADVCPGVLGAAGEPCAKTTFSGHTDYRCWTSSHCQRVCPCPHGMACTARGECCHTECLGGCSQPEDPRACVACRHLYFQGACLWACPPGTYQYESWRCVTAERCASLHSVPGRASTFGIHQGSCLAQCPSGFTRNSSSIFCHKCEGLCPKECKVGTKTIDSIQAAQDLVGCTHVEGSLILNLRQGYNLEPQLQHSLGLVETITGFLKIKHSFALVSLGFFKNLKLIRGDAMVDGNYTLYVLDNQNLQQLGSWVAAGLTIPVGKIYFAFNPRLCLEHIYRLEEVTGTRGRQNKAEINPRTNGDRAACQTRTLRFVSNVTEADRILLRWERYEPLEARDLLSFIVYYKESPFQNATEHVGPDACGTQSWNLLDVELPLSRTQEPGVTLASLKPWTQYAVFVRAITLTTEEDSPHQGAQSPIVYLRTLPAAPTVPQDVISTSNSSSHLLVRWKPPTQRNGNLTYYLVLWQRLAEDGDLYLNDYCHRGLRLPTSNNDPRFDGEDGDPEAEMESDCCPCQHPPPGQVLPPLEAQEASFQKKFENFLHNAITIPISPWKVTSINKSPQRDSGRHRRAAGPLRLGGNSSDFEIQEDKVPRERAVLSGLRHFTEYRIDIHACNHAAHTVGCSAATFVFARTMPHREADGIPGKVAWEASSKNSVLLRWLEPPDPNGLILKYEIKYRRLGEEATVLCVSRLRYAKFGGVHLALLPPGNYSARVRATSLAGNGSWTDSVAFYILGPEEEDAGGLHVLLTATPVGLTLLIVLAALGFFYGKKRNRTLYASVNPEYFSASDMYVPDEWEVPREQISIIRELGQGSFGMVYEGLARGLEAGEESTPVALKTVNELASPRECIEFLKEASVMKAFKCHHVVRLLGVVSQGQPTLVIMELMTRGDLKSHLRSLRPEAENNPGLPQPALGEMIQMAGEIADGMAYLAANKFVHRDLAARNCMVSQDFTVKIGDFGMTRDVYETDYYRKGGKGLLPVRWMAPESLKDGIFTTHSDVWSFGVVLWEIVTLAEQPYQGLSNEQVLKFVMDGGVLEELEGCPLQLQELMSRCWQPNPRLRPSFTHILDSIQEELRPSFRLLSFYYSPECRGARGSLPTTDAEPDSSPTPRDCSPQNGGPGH
Where [9] appears, read: kinase MAP2K7, compound at 1 μM.

Consider `Cc1ccc(Nc2nccc(N(C)c3ccc4c(C)n(C)nc4c3)n2)cc1S(N)(=O)=O` [pazopanib], for which, in test [1], the “%-inhibition of MAP2K1” value stood at 2.11%. Moreover, in test [2] (setting [9]), the “%-inhibition of MAP2K7” value was 10%. In addition, in test [3], the “%-inhibition of GSK3α” value turned out to be 6.5%. In addition, the “%-inhibition of EPHB3” value in test [4] (kinase EPHB3, compound at 1 μM) was -0.529%. In addition, the “%-inhibition, CK1γ3” value in test [5] is reported as -2%. For the same compound, the “%-inhibition of IKKε” value in test [6] stood at 0%. Moreover, in test [7], the “%-inhibition of DAPK1” value is 0.316%. Moreover, the “%-inhibition of IRR” value in test [8] was determined as 16%.

Regarding `CNC(=O)c1cc(Oc2ccc(NC(=O)Nc3ccc(Cl)c(C(F)(F)F)c3)c(F)c2)ccn1` [regorafenib], the “%-inhibition of MAP2K1” value in test [1] is listed as -8.57%. For the same compound, the “%-inhibition of MAP2K7” value in test [2] (setting [9]) was -2.53%. The “%-inhibition of GSK3α” value in test [3] is listed as 37%. In test [4] (kinase EPHB3, compound at 1 μM), the “%-inhibition of EPHB3” value was 22%. Further, the “%-inhibition, CK1γ3” value in test [5] is reported as -2.14%. The “%-inhibition of IKKε” value in test [6] is recorded as -7%. In test [7], the “%-inhibition of DAPK1” value is on record as -11%. In test [8], the “%-inhibition of IRR” value is on record as -4%.

In the case of `N#CC[C@H](C1CCCC1)n1cc(-c2ncnc3[nH]ccc23)cn1` [ruxolitinib], the “%-inhibition of MAP2K1” value in test [1] is listed as 11%. In addition, the “%-inhibition of MAP2K7” value in test [2] (1 µM) is recorded as 4%. For the same compound, the “%-inhibition of GSK3α” value in test [3] is 9%. The “%-inhibition of EPHB3” value in test [4] (1 µM) stood at 2.73%. Further, the “%-inhibition, CK1γ3” value in test [5] is given as 4.6%. Also, in test [6], the “%-inhibition of IKKε” value was found to be 15%. The “%-inhibition of DAPK1” value in test [7] is recorded as 71%. Besides, in test [8], the “%-inhibition of IRR” value stood at 0.404%.

As for `CO[C@H]1C[C@@H]2CC[C@@H](C)[C@@](O)(O2)C(=O)C(=O)N2CCCC[C@H]2C(=O)O[C@H]([C@H](C)C[C@@H]2CC[C@@H](OC(=O)C(C)(CO)CO)[C@H](OC)C2)CC(=O)[C@H](C)/C=C(\C)[C@@H](O)[C@@H](OC)C(=O)[C@H](C)C[C@H](C)/C=C/C=C/C=C/1C` [temsirolimus], the “%-inhibition of MAP2K1” value in test [1] turned out to be 0.452%. Moreover, the “%-inhibition of MAP2K7” value in test [2] (setting [9]) amounted to 10%. The “%-inhibition of GSK3α” value in test [3] is recorded as -14%. The “%-inhibition of EPHB3” value in test [4] (kinase EPHB3, compound at 1 μM) is reported as -13%. Besides, in test [5], the “%-inhibition, CK1γ3” value is given as -1%. Besides, in test [6], the “%-inhibition of IKKε” value is -11%. The “%-inhibition of DAPK1” value in test [7] is listed as -8%. Moreover, the “%-inhibition of IRR” value in test [8] is -13%.

For the compound `COc1cc2c(Nc3ccc(Br)cc3F)ncnc2cc1OCC1CCN(C)CC1` [vandetanib], in test [1], the “%-inhibition of MAP2K1” value was 10%. The “%-inhibition of MAP2K7” value in test [2] (setting [9]) is listed as 5.36%. In test [3], the “%-inhibition of GSK3α” value is reported as -5.37%. Also, the “%-inhibition of EPHB3” value in test [4] (kinase EPHB3, compound at 1 μM) was found to be 8%. The “%-inhibition, CK1γ3” value in test [5] is 2.66%. For the same compound, the “%-inhibition of IKKε” value in test [6] is listed as -6.49%. Also, the “%-inhibition of DAPK1” value in test [7] is reported as -9%. Besides, in test [8], the “%-inhibition of IRR” value is -3.23%.

Consider `CCCS(=O)(=O)Nc1ccc(F)c(C(=O)c2c[nH]c3ncc(-c4ccc(Cl)cc4)cc23)c1F` [vemurafenib], for which, in test [1], the “%-inhibition of MAP2K1” value was 18%. For the same compound, the “%-inhibition of MAP2K7” value in test [2] (setting [9]) turned out to be 1.65%. For the same compound, in test [3], the “%-inhibition of GSK3α” value was determined as 25%. Further, the “%-inhibition of EPHB3” value in test [4] (kinase EPHB3, compound at 1 μM) came to 2%. In addition, the “%-inhibition, CK1γ3” value in test [5] was determined as 2.14%. For the same compound, the “%-inhibition of IKKε” value in test [6] is listed as -9%. The “%-inhibition of DAPK1” value in test [7] is given as -0.115%. Moreover, the “%-inhibition of IRR” value in test [8] is on record as 21%.
